Laboratory results from ChEMBL document CHEMBL1201862, “PubChem BioAssay data set” (2004).
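These data come from cells grown in 96-well plates and exposed to compound for 48 hours at five concentrations. GI50 = concentration required for 50% inhibition of growth.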 Active and inactive are the calls of the source. Cut-off read from the data, not from the text of the source: active = GI50 up to about 1.1 µM and inactive = higher. Where a SMILES comes first, the peptide text is derived from it. [ ]: non-standard residue; d: D form. The star is where a group is joined. NMeAc5c = CNC1(C(=O)O)CCCC1; Boc = CC(C)(C)OC(=O)*; OBn = c1ccc(CO*)cc1

Assays:
Assay in all cases: NCI-60 cell line screen, 48 h
K562 = test system: K562
SR = test system: SR
SK-MEL-28 = test system: SK-MEL-28
UO-31 = test system: UO-31
HOP-62 = test system: HOP-62
UACC-257 = test system: UACC-257
SK-MEL-2 = test system: SK-MEL-2
SNB-19 = test system: SNB-19
HT-29 = test system: HT-29
HOP-92 = test system: HOP-92
MOLT-4 = test system: MOLT-4
SW-620 = test system: SW-620
ACHN = test system: ACHN
Malme-3M = test system: Malme-3M
LOX IMVI = test system: LOX IMVI
SN12C = test system: SN12C
A549 = test system: A549
HCT-15 = test system: HCT-15
Hs-578T = test system: Hs-578T
T47D = test system: T47D
CCRF-CEM = test system: CCRF-CEM
COLO 205 = test system: COLO 205
SK-OV-3 = test system: SK-OV-3
MDA-MB-435 = test system: MDA-MB-435
PC-3 = test system: PC-3
KM12 = test system: KM12
NCI-H460 = test system: NCI-H460
786-0 = test system: 786-0
HCT-116 = test system: HCT-116
MDA-N = test system: MDA-N
OVCAR-5 = test system: OVCAR-5
HCC 2998 = test system: HCC 2998
U-251 = test system: U-251
HL-60 = test system: HL-60
OVCAR-4 = test system: OVCAR-4
NCI-H226 = test system: NCI-H226
SK-MEL-5 = test system: SK-MEL-5
NCI/ADR-RES = test system: NCI/ADR-RES
DU-145 = test system: DU-145
RXF 393 = test system: RXF 393
MCF7 = test system: MCF7
OVCAR-8 = test system: OVCAR-8
BT-549 = test system: BT-549
IGROV-1 = test system: IGROV-1
SF-268 = test system: SF-268
OVCAR-3 = test system: OVCAR-3
SF-539 = test system: SF-539
NCI-H23 = test system: NCI-H23
SNB-75 = test system: SNB-75
MDA-MB-231 = test system: MDA-MB-231
TK-10 = test system: TK-10
RPMI-8226 = test system: RPMI-8226
SF-295 = test system: SF-295
EKVX = test system: EKVX
M14 = test system: M14
UACC-62 = test system: UACC-62
NCI-H522 = test system: NCI-H522
CAKI-1 = test system: CAKI-1
A498 = test system: A498

In the case of `CN(C(=O)C(Cc1ccccc1)NC(=O)OC(C)(C)C)C1(C(=O)NC(Cc2ccccc2)C(=O)OCc2ccccc2)CCCC1` (stereo not drawn) (Boc-Phe-[NMeAc5c]-Phe-OBn; configuration not given here), the GI50 (K562) is reported as 29.8 µM (inactive), the GI50 (SR) is reported as 22.2 µM (inactive) and the GI50 (SK-MEL-28) is reported as 58.1 µM (inactive). For the same compound, the GI50 (UO-31) was 25.9 µM (inactive), the GI50 (HOP-62) was 38.5 µM (inactive) and the GI50 (UACC-257) was 57.3 µM (inactive). For the same compound, the GI50 (SK-MEL-2) was 44.3 µM (inactive), the GI50 (SNB-19) was 53.5 µM (inactive) and the GI50 (HT-29) was 22.3 µM (inactive). For the same compound, the GI50 (HOP-92) was 53.7 µM (inactive), the GI50 (MOLT-4) was 26.9 µM (inactive) and the GI50 (SW-620) was 39.7 µM (inactive). The GI50 (ACHN) was 24.9 µM (inactive), the GI50 (Malme-3M) was > 100 µM (inactive) and the GI50 (LOX IMVI) was 45.1 µM (inactive). For the same compound, the GI50 (SN12C) was 46.5 µM (inactive), the GI50 (A549) was 33.3 µM (inactive) and the GI50 (HCT-15) was 28.7 µM. For the same compound, the GI50 (Hs-578T) was 41.3 µM (inactive), the GI50 (T47D) was 75.5 µM (inactive) and the GI50 (CCRF-CEM) was 39.7 µM (inactive). The GI50 (COLO 205) was 22.3 µM (inactive), the GI50 (SK-OV-3) was 0.653 µM (active) and the GI50 (MDA-MB-435) was 37.3 µM (inactive). The GI50 (PC-3) was 28.4 µM (inactive), the GI50 (KM12) was 36.6 µM (inactive) and the GI50 (NCI-H460) was 23.6 µM (inactive). The GI50 (786-0) was 40.9 µM (inactive), the GI50 (HCT-116) was 30.6 µM (inactive) and the GI50 (MDA-N) was 23.2 µM (inactive). The GI50 (OVCAR-5) was > 100 µM (inactive), the GI50 (HCC 2998) was 77.4 µM (inactive) and the GI50 (U-251) was 20.9 µM (inactive). For the same compound, the GI50 (HL-60) was 24.9 µM (inactive), the GI50 (OVCAR-4) was > 100 µM (inactive) and the GI50 (NCI-H226) was 40.6 µM (inactive). The GI50 (SK-MEL-5) was 59.6 µM (inactive), the GI50 (NCI/ADR-RES) was 27.7 µM (inactive) and the GI50 (DU-145) was 58.3 µM (inactive). For the same compound, the GI50 (RXF 393) was 44.7 µM (inactive), the GI50 (MCF7) was 32.1 µM (inactive) and the GI50 (OVCAR-8) was 38 µM (inactive). For the same compound, the GI50 (BT-549) was > 100 µM (inactive), the GI50 (IGROV-1) was 53.6 µM (inactive) and the GI50 (SF-268) was 35.4 µM (inactive). For the same compound, the GI50 (OVCAR-3) was 31.8 µM (inactive), the GI50 (SF-539) was 74.3 µM (inactive) and the GI50 (NCI-H23) was 43.7 µM (inactive). The GI50 (SNB-75) was > 100 µM (inactive), the GI50 (MDA-MB-231) was 23.4 µM (inactive) and the GI50 (TK-10) was 34.8 µM (inactive). For the same compound, the GI50 (RPMI-8226) was 22.5 µM (inactive), the GI50 (SF-295) was 42.6 µM (inactive) and the GI50 (EKVX) was 59.6 µM (inactive). The GI50 (M14) was 23.1 µM (inactive) and the GI50 (UACC-62) was 24.5 µM (inactive).
For `CCSc1c(C)c2c(n(Cc3ccc(OC)cc3)c1=O)Cc1ccccc1C2`, the GI50 (K562) was 16.5 µM (inactive), the GI50 (SR) was 3.61 µM (inactive) and the GI50 (SK-MEL-28) was 92.7 µM (inactive). The GI50 (UO-31) was 12.4 µM (inactive), the GI50 (HOP-62) was 23.1 µM (inactive) and the GI50 (UACC-257) was 13.3 µM (inactive). For the same compound, the GI50 (SK-MEL-2) was 8.3 µM (inactive), the GI50 (NCI-H522) was 11.9 µM (inactive) and the GI50 (SNB-19) was 18.2 µM (inactive). The GI50 (HT-29) was 28.2 µM (inactive), the GI50 (MOLT-4) was 2.53 µM (inactive) and the GI50 (SW-620) was 15.5 µM (inactive). For the same compound, the GI50 (ACHN) was 10.3 µM (inactive), the GI50 (Malme-3M) was 10.8 µM (inactive) and the GI50 (LOX IMVI) was 11.9 µM (inactive). For the same compound, the GI50 (SN12C) was 12.8 µM (inactive), the GI50 (CAKI-1) was 44 µM (inactive) and the GI50 (A549) was 21.9 µM (inactive). For the same compound, the GI50 (HCT-15) was 4.52 µM, the GI50 (Hs-578T) was 24.5 µM (inactive) and the GI50 (T47D) was 30.5 µM (inactive). For the same compound, the GI50 (CCRF-CEM) was 2.02 µM (inactive), the GI50 (COLO 205) was 35.6 µM (inactive) and the GI50 (SK-OV-3) was 39.5 µM (inactive). The GI50 (MDA-MB-435) was 25.1 µM (inactive), the GI50 (PC-3) was 15.3 µM (inactive) and the GI50 (KM12) was 25.1 µM (inactive). The GI50 (NCI-H460) was 6.11 µM (inactive), the GI50 (786-0) was 11 µM (inactive) and the GI50 (HCT-116) was 11.2 µM (inactive). For the same compound, the GI50 (MDA-N) was 10.4 µM (inactive), the GI50 (OVCAR-5) was 46.9 µM (inactive) and the GI50 (HCC 2998) was 13.6 µM (inactive). The GI50 (U-251) was 15 µM (inactive), the GI50 (HL-60) was 6.17 µM (inactive) and the GI50 (OVCAR-4) was 21.4 µM (inactive). The GI50 (NCI-H226) was 36.5 µM (inactive), the GI50 (SK-MEL-5) was 15.4 µM (inactive) and the GI50 (NCI/ADR-RES) was 5.08 µM (inactive). The GI50 (DU-145) was 24.7 µM (inactive), the GI50 (RXF 393) was 32.1 µM (inactive) and the GI50 (MCF7) was 24.7 µM (inactive). For the same compound, the GI50 (OVCAR-8) was 14.9 µM (inactive), the GI50 (BT-549) was 22.9 µM (inactive) and the GI50 (IGROV-1) was 19 µM (inactive). For the same compound, the GI50 (SF-268) was 11.8 µM (inactive), the GI50 (OVCAR-3) was 20.1 µM (inactive) and the GI50 (SF-539) was 19.2 µM (inactive). The GI50 (NCI-H23) was 20 µM (inactive), the GI50 (SNB-75) was 21.9 µM (inactive) and the GI50 (MDA-MB-231) was 20.7 µM (inactive). The GI50 (TK-10) was 27.2 µM (inactive), the GI50 (SF-295) was 32.1 µM (inactive) and the GI50 (EKVX) was 21.4 µM (inactive). The GI50 (M14) was 10.9 µM (inactive) and the GI50 (UACC-62) was 22.9 µM (inactive).
In the case of `Cc1cc(-n2nnc(C(=O)O)c2-c2ccccc2)c2ccc(Cl)cc2n1`, the GI50 (K562) is reported as 58.1 µM (inactive), the GI50 (SK-MEL-28) is reported as > 100 µM (inactive) and the GI50 (UO-31) is reported as > 100 µM (inactive). The GI50 (UACC-257) was > 100 µM (inactive), the GI50 (SK-MEL-2) was > 100 µM (inactive) and the GI50 (NCI-H522) was > 100 µM (inactive). For the same compound, the GI50 (SNB-19) was > 100 µM (inactive), the GI50 (HT-29) was > 100 µM (inactive) and the GI50 (HOP-92) was > 100 µM (inactive). For the same compound, the GI50 (MOLT-4) was 17.5 µM (inactive), the GI50 (SW-620) was > 100 µM (inactive) and the GI50 (ACHN) was > 100 µM (inactive). The GI50 (Malme-3M) was > 100 µM (inactive), the GI50 (LOX IMVI) was > 100 µM (inactive) and the GI50 (SN12C) was > 100 µM (inactive). The GI50 (CAKI-1) was > 100 µM (inactive), the GI50 (A549) was > 100 µM (inactive) and the GI50 (HCT-15) was > 100 µM. For the same compound, the GI50 (Hs-578T) was > 100 µM (inactive), the GI50 (T47D) was > 100 µM (inactive) and the GI50 (CCRF-CEM) was > 100 µM (inactive). For the same compound, the GI50 (COLO 205) was > 100 µM (inactive), the GI50 (SK-OV-3) was > 100 µM (inactive) and the GI50 (MDA-MB-435) was > 100 µM (inactive). The GI50 (PC-3) was > 100 µM (inactive), the GI50 (KM12) was > 100 µM (inactive) and the GI50 (NCI-H460) was > 100 µM (inactive). For the same compound, the GI50 (786-0) was > 100 µM (inactive), the GI50 (HCT-116) was > 100 µM (inactive) and the GI50 (MDA-N) was > 100 µM (inactive). The GI50 (OVCAR-5) was > 100 µM (inactive), the GI50 (HCC 2998) was > 100 µM (inactive) and the GI50 (U-251) was > 100 µM (inactive). The GI50 (HL-60) was > 100 µM (inactive), the GI50 (OVCAR-4) was > 100 µM (inactive) and the GI50 (NCI-H226) was > 100 µM (inactive). The GI50 (SK-MEL-5) was > 100 µM (inactive), the GI50 (NCI/ADR-RES) was > 100 µM (inactive) and the GI50 (DU-145) was > 100 µM (inactive). For the same compound, the GI50 (RXF 393) was > 100 µM (inactive), the GI50 (MCF7) was > 100 µM (inactive) and the GI50 (OVCAR-8) was > 100 µM (inactive). For the same compound, the GI50 (BT-549) was > 100 µM (inactive), the GI50 (IGROV-1) was > 100 µM (inactive) and the GI50 (SF-268) was > 100 µM (inactive). The GI50 (OVCAR-3) was > 100 µM (inactive), the GI50 (A498) was > 100 µM (inactive) and the GI50 (SF-539) was > 100 µM (inactive). For the same compound, the GI50 (NCI-H23) was > 100 µM (inactive), the GI50 (SNB-75) was > 100 µM (inactive) and the GI50 (MDA-MB-231) was > 100 µM (inactive). The GI50 (TK-10) was > 100 µM (inactive), the GI50 (SF-295) was > 100 µM (inactive) and the GI50 (EKVX) was > 100 µM (inactive). The GI50 (M14) was > 100 µM (inactive) and the GI50 (UACC-62) was > 100 µM (inactive).
